Test system: 186277-243-T-J2-PDC complex spheroid viability
Assay: Anticancer human tumor 186277-243-T-J2-PDC patient-derived colon adenocarcinoma cell line growth inhibition [POLQ]
Conditions: for IC50: curve of first compound; for viability, T/C: stronger effect = lower value
Outline: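 Patient-derived tumour cells were co-cultured with HUVEC and mesenchymal stem cells as multicellular spheroids at 37 °C. They were treated with POLQ inhibitors (novobiocin, ART-558, RP6685) alone or combined with other agents. Top concentrations were at or near clinical Cmax (otherwise 10 microM; SN-38 at 1 microM), decreasing in half-log steps.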

[1] = second compound 0.0316 µM, first compound 0.0316 µM
[2] = second compound 0.0316 µM, first compound 0.1 µM
[3] = second compound 0.0316 µM, first compound 0.316 µM
[4] = second compound 0.0316 µM, first compound 1 µM
[5] = second compound 0.1 µM, first compound 0.0316 µM
[6] = second compound 0.1 µM, first compound 0.1 µM
[7] = second compound 0.1 µM, first compound 0.316 µM
[8] = second compound 0.1 µM, first compound 1 µM
[9] = second compound 0.316 µM, first compound 0.0316 µM
[10] = second compound 0.316 µM, first compound 0.1 µM
[11] = second compound 0.316 µM, first compound 0.316 µM
[12] = second compound 0.316 µM, first compound 1 µM
[13] = second compound 1 µM, first compound 0.0316 µM
[14] = second compound 1 µM, first compound 0.1 µM
[15] = second compound 1 µM, first compound 0.316 µM
[16] = second compound 1 µM, first compound 1 µM
[17] = second compound 3.16 µM, first compound 0.0316 µM
[18] = second compound 3.16 µM, first compound 0.1 µM
[19] = second compound 3.16 µM, first compound 0.316 µM
[20] = second compound 3.16 µM, first compound 1 µM
[21] = second compound 10 µM, first compound 0.0316 µM
[22] = second compound 10 µM, first compound 0.1 µM
[23] = second compound 10 µM, first compound 0.316 µM
[24] = second compound 10 µM, first compound 1 µM
[25] = second compound 0.0316 µM, first compound 0.00316 µM
[26] = second compound 0.0316 µM, first compound 0.01 µM
[27] = second compound 0.1 µM, first compound 0.00316 µM
[28] = second compound 0.1 µM, first compound 0.01 µM
[29] = second compound 0.316 µM, first compound 0.00316 µM
[30] = second compound 0.316 µM, first compound 0.01 µM
[31] = second compound 1 µM, first compound 0.00316 µM
[32] = second compound 1 µM, first compound 0.01 µM
[33] = second compound 3.16 µM, first compound 0.00316 µM
[34] = second compound 3.16 µM, first compound 0.01 µM
[35] = second compound 10 µM, first compound 0.00316 µM
[36] = second compound 10 µM, first compound 0.01 µM
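Further: spheroids exposed to compounds for seven days.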
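Wherever viability, T/C is given: 100% = DMSO vehicle control viability.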

CNCc1ccc(-c2[nH]c3cc(F)cc4c3c2CCNC4=O)cc1 + Nc1ccc(C#CCN(C(=O)Cc2ncc(C(F)(F)F)cc2C(F)(F)F)c2ccc(F)cc2)nn1
IC50 (second compound 0.0316 µM): > 10000 nM | IC50 (second compound 0.1 µM): > 10000 nM | IC50 (second compound 0.316 µM): > 10000 nM | IC50 (second compound 1 µM): > 10000 nM | IC50 (second compound 3.16 µM): > 10000 nM | IC50 (second compound 10 µM): > 10000 nM | viability, T/C [1]: 121% | viability, T/C [2]: 104% | viability, T/C [3]: 129% | viability, T/C [4]: 85.5% | viability, T/C (second compound 0.0316 µM, first compound 3.16 µM): 112% | viability, T/C (second compound 0.0316 µM, first compound 10 µM): 126% | viability, T/C [5]: 101% | viability, T/C [6]: 96.7% | viability, T/C [7]: 108% | viability, T/C [8]: 95.5% | viability, T/C (second compound 0.1 µM, first compound 3.16 µM): 125% | viability, T/C (second compound 0.1 µM, first compound 10 µM): 121% | viability, T/C [9]: 100% | viability, T/C [10]: 109% | viability, T/C [11]: 103% | viability, T/C [12]: 102% | viability, T/C (second compound 0.316 µM, first compound 3.16 µM): 105% | viability, T/C (second compound 0.316 µM, first compound 10 µM): 116% | viability, T/C [13]: 92.4% | viability, T/C [14]: 118% | viability, T/C [15]: 95% | viability, T/C [16]: 111% | viability, T/C (second compound 1 µM, first compound 3.16 µM): 98.7% | viability, T/C (second compound 1 µM, first compound 10 µM): 132% | viability, T/C [17]: 96.9% | viability, T/C [18]: 118% | viability, T/C [19]: 100% | viability, T/C [20]: 99.6% | viability, T/C (second compound 3.16 µM, first compound 3.16 µM): 111% | viability, T/C (second compound 3.16 µM, first compound 10 µM): 110% | viability, T/C [21]: 108% | viability, T/C [22]: 106% | viability, T/C [23]: 106% | viability, T/C [24]: 103% | viability, T/C (second compound 10 µM, first compound 3.16 µM): 88.2% | viability, T/C (second compound 10 µM, first compound 10 µM): 116%

CCc1c2c(nc3ccc(O)cc13)-c1cc3c(c(=O)n1C2)COC(=O)[C@]3(O)CC + Cc1cccc(N(C)C(=O)C2C(O)CCN2c2nc(C)cc(C(F)(F)F)c2C#N)c1
IC50 (second compound 0.0316 µM): 9.32 nM | IC50 (second compound 0.1 µM): 10.2 nM | IC50 (second compound 0.316 µM): 10.8 nM | IC50 (second compound 1 µM): 10.1 nM | IC50 (second compound 3.16 µM): 9.58 nM | IC50 (second compound 10 µM): 5.53 nM | viability, T/C [25]: 69% | viability, T/C [26]: 48.5% | viability, T/C [1]: 27% | viability, T/C [2]: 12.7% | viability, T/C [3]: 10.5% | viability, T/C [4]: 7.92% | viability, T/C [27]: 74% | viability, T/C [28]: 50.3% | viability, T/C [5]: 25.7% | viability, T/C [6]: 12.8% | viability, T/C [7]: 9.86% | viability, T/C [8]: 7.71% | viability, T/C [29]: 66.5% | viability, T/C [30]: 51.6% | viability, T/C [9]: 27.9% | viability, T/C [10]: 13.8% | viability, T/C [11]: 9.55% | viability, T/C [12]: 8.34% | viability, T/C [31]: 73% | viability, T/C [32]: 50.3% | viability, T/C [13]: 24% | viability, T/C [14]: 12.7% | viability, T/C [15]: 10.4% | viability, T/C [16]: 7.86% | viability, T/C [33]: 59.1% | viability, T/C [34]: 50.1% | viability, T/C [17]: 24.3% | viability, T/C [18]: 12.1% | viability, T/C [19]: 9.42% | viability, T/C [20]: 6.8% | viability, T/C [35]: 58.6% | viability, T/C [36]: 40.8% | viability, T/C [21]: 21% | viability, T/C [22]: 9.71% | viability, T/C [23]: 8.72% | viability, T/C [24]: 6.68%

CCc1c2c(nc3ccc(O)cc13)-c1cc3c(c(=O)n1C2)COC(=O)[C@]3(O)CC + Nc1ccc(C#CCN(C(=O)Cc2ncc(C(F)(F)F)cc2C(F)(F)F)c2ccc(F)cc2)nn1
IC50 (second compound 0.0316 µM): 30.9 nM | IC50 (second compound 0.1 µM): 30 nM | IC50 (second compound 0.316 µM): 26.1 nM | IC50 (second compound 1 µM): 27.4 nM | IC50 (second compound 3.16 µM): 25.5 nM | IC50 (second compound 10 µM): 21.4 nM | viability, T/C [25]: 114% | viability, T/C [26]: 87.4% | viability, T/C [1]: 49.6% | viability, T/C [2]: 26.4% | viability, T/C [3]: 20.3% | viability, T/C [4]: 18.1% | viability, T/C [27]: 122% | viability, T/C [28]: 87.1% | viability, T/C [5]: 49.9% | viability, T/C [6]: 24.7% | viability, T/C [7]: 20.8% | viability, T/C [8]: 19.1% | viability, T/C [29]: 128% | viability, T/C [30]: 86.9% | viability, T/C [9]: 43.2% | viability, T/C [10]: 23.1% | viability, T/C [11]: 22.4% | viability, T/C [12]: 19.4% | viability, T/C [31]: 125% | viability, T/C [32]: 82.5% | viability, T/C [13]: 46.8% | viability, T/C [14]: 24.2% | viability, T/C [15]: 20.6% | viability, T/C [16]: 18.3% | viability, T/C [33]: 114% | viability, T/C [34]: 82.9% | viability, T/C [17]: 43.5% | viability, T/C [18]: 20.9% | viability, T/C [19]: 18.5% | viability, T/C [20]: 18.1% | viability, T/C [35]: 100% | viability, T/C [36]: 71.8% | viability, T/C [21]: 40.2% | viability, T/C [22]: 18.5% | viability, T/C [23]: 17% | viability, T/C [24]: 15.9%
